Data set [1] can be described thus: Tolerability in the 16-week clinical trial of Example 1. The format is in vivo, human. On the procedure: Forty-one (n=41) volunteers with an average body weight of 91.5±14.4 kgs (201+9.7 lbs), body fat of 40.4±3.7 kgs (88.8+8 lbs), liver fat content above 10% and average age of 37.4±4.8 years were recruited to take part in a 16-week clinical trial. Daily meal composition was 50% carbohydrate, 30% protein and 20% fat. Food record data, body composition, EER, and blood sample analysis results were assessed on admission and every week for 16-weeks. Energy expenditure rate (EER) was measured by indirect calorimetry. Plasma levels of inflammatory markers alanine aminotransferase (ALT), aspartate aminotransferase (AST), g-glutamyltransferase (GGT) enzymes and C-reactive protein (CRP) were evaluated as measures of liver function, along with diastolic and systolic blood pressure, dual-energy X-ray absorptiometry to determine percent of lean and fat body mass, and liver fat content.
Subjects were randomly assigned to one of 10 treatments or placebo (total 11 groups), which were in softgel capsules and were to be consumed with water 15 to 30 mins. before meals. Each phytomedicine soft-gel capsule provided 100 mg of Undaria pinnatifida (Phaeophyceae) brown marine vegetable extract and 100 mg of cold-pressed pomegranate (Punica granatum, Punicaceae) seed oil.
All subjects completed 16 weeks clinical trial without any reported adverse effects. […]

The nature of data set [2]: Energy expenditure rate (EER) by indirect calorimetry, 16-week double-blind placebo-controlled trial in obese non-diabetic female volunteers with NAFLD (Example 1). More on the design: key to Effects on EER: NE = No effect; * = significant vs. placebo and vs. baseline, p < 0.05% at the week listed for the duration of the study; *** = significant vs. placebo and vs. baseline, p < 0.001%. The note with it: for Effects on EER: 16 weeks. The format is in vivo, human. The source says: The objectives of the study were to investigate the effects of different doses of a brown marine vegetable extract standardized by fucoxanthin content, pomegranate seed oil containing a minimum of 70% punicic acid, and the phytomedicine combining, both of fucoxanthin and pomegranate seed oil, on energy expenditure rate (EER) in obese non-diabetic female volunteers with non-alcoholic fatty liver disease (NAFLD) on a moderate calorie restriction diet. Forty-one (n=41) volunteers with an average body weight of 91.5±14.4 kgs (201+9.7 lbs), body fat of 40.4±3.7 kgs (88.8+8 lbs), liver fat content above 10% and average age of 37.4±4.8 years were recruited to take part in a 16-week clinical trial. Daily meal composition was 50% carbohydrate, 30% protein and 20% fat. Food record data, body composition, EER, and blood sample analysis results were assessed on admission and every week for 16-weeks. Energy expenditure rate (EER) was measured by indirect calorimetry. Plasma levels of inflammatory markers alanine aminotransferase (ALT), aspartate aminotransferase (AST), g-glutamyltransferase (GGT) enzymes and C-reactive protein (CRP) were evaluated as measures of liver function, along with diastolic and systolic blood pressure, dual-energy X-ray absorptiometry to determine percent of lean and fat body mass, and liver fat content. Subjects were randomly assigned to one of 10 treatments or placebo (total 11 groups), which were in softgel capsules and were to be consumed with water 15 to 30 mins. before meals. Each phytomedicine soft-gel capsule provided 100 mg of Undaria pinnatifida (Phaeophyceae) brown marine vegetable extract and 100 mg of cold-pressed pomegranate (Punica granatum, Punicaceae) seed oil.

The conditions of data set [3]: fucoxanthin, wistar rats; cited from earlier work.
The conditions of data set [4]: fucoxanthin, cited from earlier work.
Data set [5] has as its system mitochondrial uncoupling protein 1 (UCP1). The conditions noted are these: fucoxanthin; cited from earlier work.

“Also recorded” adds a separate entry of the source. Where two headings read alike, the source gives them in different places.

Turning to Pomegranate Seed Oil, the tolerability result in data set [1] (human, in vivo) is given as “well tolerated”.
For the substance fucoxanthin, in data set [2] (8.40 mg fucoxanthin), the “Effects on EER vs. placebo and baseline” value is given as “highly significant”. Besides, the “Effects on EER vs. those of 4.20 mg fucoxanthin” value in data set [2] (8.40 mg fucoxanthin) is listed as “significant”. Also, the “minimum doses that resulted in statistically significant increases in EER” value in data set [2] (16-week trial, fucoxanthin as mg fucoxanthin/day) worked out at 2.52 mg. Also, the “Effects on EER” value was “NE” in data set [2] (Fucoxanthin 1.68 mg/day); “* (* = significant vs. placebo and vs. baseline, p < 0.05% at the week listed for the duration of the study)” in data set [2] (Fucoxanthin 2.52 mg/day); “* (* = significant vs. placebo and vs. baseline, p < 0.05% at the week listed for the duration of the study)” in data set [2] (Fucoxanthin 4.20 mg/day); “*** (*** = significant vs. placebo and vs. baseline, p < 0.001%)” in data set [2] (Fucoxanthin 8.40 mg/day). The “EER in obese subjects (overall)” value in data set [2] (oral supplementation, effect dose-dependent and time-dependent) was “increased; also recorded: statistically significant dose-dependent increase”. Moreover, the WAT entry in data set [3] and in data set [4] (obese KK-Ay mice) was “reduced WAT” each time. Also, the body weight result in data set [4] (KK-Ay mice) is on record as “significant reduction”. In data set [1] (16 weeks, all subjects, no reported adverse effects), the tolerability entry is on record as “well tolerated”. In addition, the “expression of uncoupling protein UCP1 gene in white adipose tissue (WAT)” value in data set [5] was “upregulates”.

The record behind these values is patent US20080233209A1, “Composition and method of use for the treatment of metabolic syndrome and inflammation” (POLIFENOLES NATURALES, SL, priority 2007, published 2008).
